Where a name gives a salt, the structure may show the parent alone.
Columns and labels:
Penicillium pinophillum = assay: Minimum Inhibitory Concentration synergy test on fungi (Kull et al procedure); type: cell-based
Excerpt: (§1) The procedure followed is adapted from and follows very closely, the procedure described in the Kull et al article. The concentrations listed in Table 1 are the Minimum Inhibitory Concentrations.
(§2) In Table 3, synergism test results are summarized for a 1:26 weight ratio of OPP:DGH against three molds, using the same test system as for Table 1
(§3) Synergism has also been shown for combinations of DGH and NaMetam (sodium methyldithiocarbamate). The Table 5 results were obtained in a manner similar to those of Table 1: […]

[1] = test system: Wild strain - Alternaria sp.; assay: as above; type: cell-based
Excerpt: as §1, §2, §3

Mixed inoculum = assay: as above; type: cell-based
Excerpt: as §1, §2, §3

Aspergillus niger = assay: as above; type: cell-based
Excerpt: as §1, §2, §3

[2] = test system: artificial bacterial consortium containing approximately equal numbers of six bacterial strains; assay: Synergism dose protocol: growth inhibition of a bacterial consortium in synthetic white water (O.D. 650 nm); type: cell-based; settings: end point 50% inhibition of bacterial growth; pH 5.5; SI less than 1 = synergism
Description: O-phenylphenol was tested in combination with DGH. The synergism of the blends was determined using a dose protocol. The combinations were evaluated in synthetic white water with pH value of 5.5. The materials were tested against an artificial bacterial consortium containing approximately equal numbers of six bacterial strains. Although the test strains are representative of organisms present in paper mill systems, the effect is not limited to these bacteria. Two of the strains were Kiebsiella pneumoia (ATCC 13883) and Pseudomonas aeruginosa (ATCC 15442). […] Optical density (O>D>) readings at 650 nm were taken initially (t0) and after 4 hours (t4) of incubation. […]
The inhibition values can be plotted versus dosage for each active and the particular blend. […] In the examples (tables) below, the 50 values are expressed as parts per million (ppm) of active material.
The synergism index (SI) was calculated by the equation below, which was proposed by F. C. […]
QA=quantity of compound A in mixture, producing the end point
Qa=quantity of compound A1 acting alone, producing the end point
QB=quantity of compound B in mixture, producing the end point
Qb=quantity of compound B1 acting alone, producing the end point If SI is less than 1, synergism exists; if SI is greater than 1, antagonism exists; if SI is equal to 1, an additive effect exists.

[3] = test system: Aureobasidium pullulans ATCC 9348, Aspergillus niger ATCC 6275, Penicillium sp. ATCC 9849; assay: ASTM Test Method D-3273 00, resistance to surface mold fungi and mildew, in adhesives; settings: similar tests, same organisms; in Titebond Solvent Free Fast Grab FRP Adhesive and Titebond Solvent Free Subfloor Adhesive
Excerpt: In addition to experiments as described above, tests were made to compare combinations of DGH (dodecyl guanidine hydrochloride) and OPP against microorganisms known to generate what is commonly known as mildew, when used in caulking and/or adhesive materials used in bathtubs, showers and the like. ASTM (American Society for Testing Materials) Test Method D-3273 00, dealing with resistance to surface mold fungi and mildew was used. Generally, this is an accelerated test calling for a test chamber held at a relative humidity of 95 to 98% and a temperature of 32.5±1° C. (90±2° F.).
Five commercial adhesive compositions known to be susceptible to mildew growth were tested using the microorgainsms Aureobasidium pullulans ATCC 9348, Aspergillus niger ATCC 6275, Penicillium sp. ATCC 9849.
Following this test, a composition comprising 10 g of OPP and 30 g of dodecyl guanidine hydrochloride (DGH) was incorporated into samples of Titebond™ Professional Tub Surround Adhesive at concentrations of 150, 250, 500, 750, and 1000 ppm and the adhesive was tested in the same manner as in Table 2. At 28 days, all of the DGH/OPP compositions were rated at 10.

[4] = Table 1, Minimum Inhibitory Concentration, Penicillium pinophillum
[5] = Table 3, Penicillum pinophillum
[6] = Table 5, Penicillum pinophillum
[7] = Table 1, Minimum Inhibitory Concentration, Wild strain - Alternaria sp.
[8] = Table 3, Wild strain - Atlernaria sp.
[9] = Table 5, Wild Strain - Alternaria sp.
[10] = Table 1, Minimum Inhibitory Concentration, Mixed inoculum
[11] = Table 1, Minimum Inhibitory Concentration

For `CCCCCCCCCCCCNC(=N)N` [DGH, Dodecyl guanidine hydrochloride], the “Concentration of DGH alone” value (Penicillium pinophillum; [4]) was 62.5, the “DGH conc (ppm) alone” value (Penicillium pinophillum; [5]) was 62.5 ppm and the “Conc. Of DGH alone” value (Penicillium pinophillum; [6]) was 62.5. The “Concentration of DGH alone” value [1, 7] was 125, the “DGH conc (ppm) alone” value [1, 8] was 125 ppm and the “Conc. Of DGH alone” value [1, 9] was 62.5. For the same molecule, the “Concentration of DGH alone” value (Mixed inoculum; [10]) was 125, the “DGH conc (ppm) alone” value (Mixed inoculum; Table 3, Mixed inoculum) was 125 ppm and the “Conc. Of DGH alone” value (Mixed inoculum; Table 5, Mixed Inoculum) was 62.5. For the same molecule, the “Concentration of DGH alone” value (Aspergillus niger; [11]) was 62.5, the “DGH conc (ppm) alone” value (Aspergillus niger; Table 3) was 62.5 ppm and the “Conc. Of DGH alone” value (Aspergillus niger; Table 5) was 62.5. The “Synergy Index” value [2] was 1.00.
With `CNC(=S)[S-].[Na+]` [NaMetam, sodium methyldithiocarbamate] the “Conc of NaMetam alone” value (Penicillium pinophillum; [6]) was 31.2, the “Conc of NaMetam alone” value [1, 9] was 125 and the “Conc of NaMetam alone” value (Mixed inoculum; Table 5, Mixed Inoculum) was 250. The “Conc of NaMetam alone” value (Aspergillus niger; Table 5) was 31.2.
For `[Na+].[O-]c1ccccc1-c1ccccc1` [NaOPP, sodium orthophenylphenate], the “Synergy Index” value [2] was 1.00.
`Oc1ccccc1-c1ccccc1` [OPP, o-phenylphenol] was tested, and the “Concentration of OPP alone” value (Penicillium pinophillum; [4]) was 15.6, the “OPP conc (ppm) alone” value (Penicillium pinophillum; [5]) was 15.6 ppm and the “Concentration of OPP alone” value [1, 7] was 15.6. For the same molecule, the “OPP conc (ppm) alone” value [1, 8] was 15.6 ppm, the “Concentration of OPP alone” value (Mixed inoculum; [10]) was 15.6 and the “OPP conc (ppm) alone” value (Mixed inoculum; Table 3, Mixed inoculum) was 15.6 ppm. For the same molecule, the “Concentration of OPP alone” value (Aspergillus niger; [11]) was 15.6 and the “OPP conc (ppm) alone” value (Aspergillus niger; Table 3) was 15.6 ppm.
With dodecyl guanidine acetate [DGA] the mildew inhibition [3] was “effective mildew inhibitors”.

From US20060040122A1, “Antimicrobial drywall” (Verichem, Inc., priority 2004, published 2006)
